# According to patent US20260271931A1, “HERBICIDAL MIXTURES” (Bayer Aktiengesellschaft, priority 2023, published 2026):
# Where two headings read alike, the source gives them in different places.
# How the values were obtained:
# Type in all cases: in vivo
# Eleusine indica (ELEIN) = test: Post-emergence action against weeds, greenhouse pot test, visual rating: Eleusine indica; conditions: for pest or weed control at 150 g/ha: 150 g a.i./ha; for pest or weed control at 50 g/ha: 50 g a.i./ha; for pest or weed control at 15 g/ha: 15 g a.i./ha
# Description: (§1) When the observed efficacies already exceed the formal sum total of the values of the tests with individual applications, they also exceed the expected value according to Colby, which is calculated using the formula below and is likewise regarded as an indication of synergism (cf. S. R. Colby; in Weeds 15 (1967) pp. 20 to 22):
# (§2) where: • A=efficacy of the active ingredient (A) in % at an application rate of a [g a.i./ha]; • B=efficacy of the active ingredient (B) in % at an application rate of b [g a.i./ha]; • E^C=expected value of the effect of the combination (A)+(B) in % at the combined application rate a+b [g a.i./ha].
# (§3) The observed values (E^A) from the experiments, given suitable low dosages, show an effect of the combinations exceeding the expected values according to Colby (E^C) (Δ).
# (§4) Seeds of mono- and dicotyledonous weeds were placed in sandy loam in pots, covered with soil and grown in a greenhouse under good growth conditions (temperature, air humidity, water supply). Two to three weeks after sowing, the test plants were treated at the two- to four-leaf stage with the compositions of the invention. The compositions of the invention, formulated as spray powders or as emulsion concentrates, were sprayed onto the green parts of the plant in various dosages with an application rate equivalent to […] of water. After the test plants had been kept in the greenhouse under optimum growth conditions for 3 weeks, the activity of the preparations was rated visually in comparison to untreated controls.
# (§5) 100% efficacy means complete control of the particular weed tested.
# (§6) 0% efficacy means zero control of the particular weed tested.
# (§7) Expected values according to Colby are reported under E.
# (§8) The exceedance of the expected value E is given as Δ (=synergistic effect).
# (§9) The rating period is reported in days after application (DAT).
# Avena fatua (AVEFA) = test: Post-emergence action against weeds, greenhouse pot test, visual rating: Avena fatua; conditions: for pest or weed control at 4 g/ha: 4 g a.i./ha
# [1] = tested on: Brachiaria platyfylla (BRAPP); test: Post-emergence action against weeds, greenhouse pot test, visual rating: Brachiaria platyfylla
# Description: as §1, §2, §3, §4, §5, §6, §7, §8, §9
# Centaurea cyanus (CENCY) = test: Post-emergence action against weeds, greenhouse pot test, visual rating: Centaurea cyanus
# Description: as §1, §2, §3, §4, §5, §6, §7, §8, §9
# Lolium rigidum (LOLRI) = test: Post-emergence action against weeds, greenhouse pot test, visual rating: Lolium rigidum
# [2] = tested on: Pharbitis purpurea (PHBPU); test: Post-emergence action against weeds, greenhouse pot test, visual rating: Pharbitis purpurea
# Description: as §1, §2, §3, §4, §5, §6, §7, §8, §9
# Kochia scoparia (KCHSC) = test: Post-emergence action against weeds, greenhouse pot test, visual rating: Kochia scoparia
# [3] = tested on: Sorghum halepense (SORHA); test: Post-emergence action against weeds, greenhouse pot test, visual rating: Sorghum halepense
# Description: as §1, §2, §3, §4, §5, §6, §7, §8, §9
# Bidens pilosa (BIDPI) = test: Post-emergence action against weeds, greenhouse pot test, visual rating: Bidens pilosa
# [4] = tested on: Echinochloa crus-galli (ECHCG); test: Post-emergence action against weeds, greenhouse pot test, visual rating: Echinochloa crus-galli
# [5] = Eleusine indica, post-emergence, 240 h, read-out: Herbicidal effect [%] on ELEIN 10 DAT
# [6] = Eleusine indica, post-emergence, 504 h, read-out: Herbicidal effect [%] on ELEIN 21 DAT
# [7] = Bassia scoparia, post-emergence, 504 h, read-out: Herbicidal effect [%] on KCHSC 21 DAT
# [8] = post-emergence, 240 h, read-out: Herbicidal effect [%] on BRAPP 10 DAT
# [9] = Lolium rigidum, 504 h, read-out: Herbicidal effect [%] on LOLRI 21 DAT
# [10] = Avena fatua, 240 h, 10 DAT, read-out: Herbicidal effect [%] on AVEFA 10 DAT
molecule,measurement,setting,value
"O=C(O)COc1ccc(Cl)cc1Cl [2,4-D]",Herbicidal effect [%] on ELEIN 10 DAT,Eleusine indica (ELEIN); 40 g a.i./ha,10%
same,Herbicidal effect [%] on AVEFA 10 DAT,"Avena fatua (AVEFA); 10 DAT, 40 g a.i./ha",0%
same,Herbicidal effect [%] on BRAPP 10 DAT,[1]; 40 g a.i./ha,0%
same,Herbicidal effect [%] on BRAPP 21 DAT,[1]; 40 g a.i./ha,0%
same,Herbicidal effect [%] on CENCY 21 DAT,Centaurea cyanus (CENCY); 40 g a.i./ha,75%
"CCOCN(C(=O)CCl)c1c(C)cccc1CC [Acetochlor, acetochlor]",pest or weed control at 150 g/ha,Eleusine indica (ELEIN); [5],80%
same,pest or weed control at 150 g/ha,Eleusine indica (ELEIN); [6],90%
same,Herbicidal effect [%] on LOLRI 10 DAT,Lolium rigidum (LOLRI); 150 g a.i./ha,40%
same,pest or weed control at 150 g/ha,"Lolium rigidum (LOLRI); Lolium rigidum, 504 h, 150 g a.i./ha, 21 DAT, read-out: Herbicidal effect [%] on LOLRI 21 DAT",0%
"CCNc1nc(Cl)nc(NC(C)C)n1 [Atrazine, atrazine]",pest or weed control at 50 g/ha,Eleusine indica (ELEIN); [5],30%
same,pest or weed control at 50 g/ha,Eleusine indica (ELEIN); [6],0%
same,Herbicidal effect [%] on PHBPU 10 DAT,"[2]; 50 g a.i./ha, 10 DAT",30%
same,Herbicidal effect [%] on PHBPU 21 DAT,[2]; 50 g a.i./ha,20%
"CCSC(C)CC1CC(=O)C(/C(CC)=N/OC/C=C/Cl)=C(O)C1 (stereo not drawn) [Clethodim, clethodim]",pest or weed control at 8 g/ha,Kochia scoparia (KCHSC); [7],0%
same,Herbicidal effect [%] on SORHA 10 DAT,"[3]; 8 g a.i./ha, 10 DAT",80%
same,pest or weed control at 8 g/ha,Eleusine indica (ELEIN); [6],30%
same,pest or weed control at 8 g/ha,[1]; [8],85%
same,Herbicidal effect [%] on LOLRI 10 DAT,Lolium rigidum (LOLRI); 8 g a.i./ha,80%
"COc1c(Cl)ccc(Cl)c1C(=O)O [Dicamba, dicamba]",Herbicidal effect [%] on KCHSC 10 DAT,Kochia scoparia (KCHSC); 5 g a.i./ha,20%
same,pest or weed control at 5 g/ha,Kochia scoparia (KCHSC); [7],20%
same,Herbicidal effect [%] on BIDPI 10 DAT,Bidens pilosa (BIDPI); 5 g a.i./ha,30%
same,Herbicidal effect [%] on BIDPI 21 DAT,Bidens pilosa (BIDPI); 5 g a.i./ha,40%
same,Herbicidal effect [%] on ECHCG 10 DAT,[4]; 5 g a.i./ha,0%
same,pest or weed control at 5 g/ha,Eleusine indica (ELEIN); [5],0%
same,pest or weed control at 5 g/ha,Eleusine indica (ELEIN); [6],0%
same,pest or weed control at 5 g/ha,[1]; [8],0%
same,pest or weed control at 5 g/ha,"[1]; post-emergence, 504 h, read-out: Herbicidal effect [%] on BRAPP 21 DAT",0%
same,pest or weed control at 5 g/ha,Lolium rigidum (LOLRI); [9],0%
"O=C(Nc1ccc(F)cc1F)c1cccnc1Oc1cccc(C(F)(F)F)c1 [Diflufenican, diflufenican]",Herbicidal effect [%] on SORHA 21 DAT,"[3]; 120 g a.i./ha, 21 DAT",0%
same,pest or weed control at 120 g/ha,"Eleusine indica (ELEIN); Eleusine indica, post-emergence, 504 h, 120 g a.i./ha, read-out: Herbicidal effect [%] on ELEIN 21 DAT",10%
same,pest or weed control at 120 g/ha,"Avena fatua (AVEFA); Avena fatua, 240 h, 10 DAT, 120 g a.i./ha, read-out: Herbicidal effect [%] on AVEFA 10 DAT",10%
"COc1c(Cl)ccc(-c2nc(C(=O)O)c(Cl)c(N)c2F)c1F [Florpyrauxifen, florpyrauxifen]",Herbicidal effect [%] on PHBPU 21 DAT,[2]; 1 g a.i./ha,10%
"CP(=O)(O)CCC(N)C(=O)O (stereo not drawn) [Glufosinate, glufosinate]",pest or weed control at 30 g/ha,Eleusine indica (ELEIN); [5],10%
"O=C(O)CNCP(=O)(O)O [Glyphosate, glyphosate]",pest or weed control at 30 g/ha,Kochia scoparia (KCHSC); [7],0%
same,Herbicidal effect [%] on ECHCG 10 DAT,[4]; 30 g a.i./ha,20%
"CS(=O)(=O)c1cc(C(F)(F)F)ccc1C(=O)c1cnoc1C1CC1 [Isoxaflutole, isoxaflutole]",pest or weed control at 4 g/ha,"Kochia scoparia (KCHSC); Bassia scoparia, post-emergence, 504 h, 4 g a.i./ha, read-out: Herbicidal effect [%] on KCHSC 21 DAT",30%
same,Herbicidal effect [%] on BIDPI 21 DAT,Bidens pilosa (BIDPI); 4 g a.i./ha,40%
same,Herbicidal effect [%] on ECHCG 10 DAT,[4]; 4 g a.i./ha,60%
same,Herbicidal effect [%] on ECHCG 21 DAT,[4]; 4 g a.i./ha,40%
same,pest or weed control at 4 g/ha,Avena fatua (AVEFA); [10],30%
same,Herbicidal effect [%] on PHBPU 21 DAT,[2]; 4 g a.i./ha,10%
"CS(=O)(=O)c1ccc(C(=O)C2C(=O)CCCC2=O)c([N+](=O)[O-])c1 [Mesotrione, mesotrione]",Herbicidal effect [%] on KCHSC 10 DAT,Kochia scoparia (KCHSC); 4 g a.i./ha,30%
same,pest or weed control at 4 g/ha,"Eleusine indica (ELEIN); Eleusine indica, post-emergence, 504 h, 4 g a.i./ha, read-out: Herbicidal effect [%] on ELEIN 21 DAT",10%
same,pest or weed control at 4 g/ha,Avena fatua (AVEFA); [10],10%
same,pest or weed control at 4 g/ha,"[1]; post-emergence, 504 h, 4 g a.i./ha, read-out: Herbicidal effect [%] on BRAPP 21 DAT",0%
same,pest or weed control at 4 g/ha,"Lolium rigidum (LOLRI); Lolium rigidum, 504 h, 4 g a.i./ha, 21 DAT, read-out: Herbicidal effect [%] on LOLRI 21 DAT",0%
same,Herbicidal effect [%] on CENCY 21 DAT,Centaurea cyanus (CENCY); 4 g a.i./ha,40%
"C[n+]1ccc(-c2cc[n+](C)cc2)cc1 [Paraquat, paraquat]",pest or weed control at 40 g/ha,Eleusine indica (ELEIN); [5],40%
same,pest or weed control at 40 g/ha,Eleusine indica (ELEIN); [6],10%
same,pest or weed control at 40 g/ha,Lolium rigidum (LOLRI); [9],10%
"Cn1nc(C(F)(F)F)c(CS(=O)(=O)C2=NOC(C)(C)C2)c1OC(F)F [Pyroxasulfone, pyroxasulfone]",pest or weed control at 15 g/ha,"Kochia scoparia (KCHSC); Bassia scoparia, post-emergence, 504 h, 15 g a.i./ha, read-out: Herbicidal effect [%] on KCHSC 21 DAT",0%
same,pest or weed control at 15 g/ha,Eleusine indica (ELEIN); [5],10%
same,pest or weed control at 15 g/ha,Eleusine indica (ELEIN); [6],60%
same,pest or weed control at 15 g/ha,"[1]; post-emergence, 240 h, 15 g a.i./ha, read-out: Herbicidal effect [%] on BRAPP 10 DAT",20%
"CCS(=O)(=O)c1cccnc1S(=O)(=O)NC(=O)Nc1nc(OC)cc(OC)n1 [Rimsulfuron, rimsulfuron]",Herbicidal effect [%] on ECHCG 21 DAT,[4]; 0.9 g a.i./ha,90%
same,pest or weed control at 0.9 g/ha,"Eleusine indica (ELEIN); Eleusine indica, post-emergence, 504 h, 0.9 g a.i./ha, read-out: Herbicidal effect [%] on ELEIN 21 DAT",40%
same,Herbicidal effect [%] on AVEFA 21 DAT,Avena fatua (AVEFA); 0.9 g a.i./ha,50%
same,pest or weed control at 0.9 g/ha,"Avena fatua (AVEFA); Avena fatua, 240 h, 10 DAT, 0.9 g a.i./ha, read-out: Herbicidal effect [%] on AVEFA 10 DAT",60%
same,Herbicidal effect [%] on PHBPU 21 DAT,[2]; 0.9 g a.i./ha,10%
"CCNc1nc(Cl)nc(NC(C)(C)C)n1 [Terbuthylazine, terbuthylazine]",Herbicidal effect [%] on ECHCG 10 DAT,[4]; 50 g a.i./ha,10%
same,Herbicidal effect [%] on ECHCG 21 DAT,[4]; 50 g a.i./ha,0%
same,pest or weed control at 50 g/ha,Eleusine indica (ELEIN); [5],85%
same,pest or weed control at 50 g/ha,Eleusine indica (ELEIN); [6],70%
same,pest or weed control at 50 g/ha,"[1]; post-emergence, 240 h, 50 g a.i./ha, read-out: Herbicidal effect [%] on BRAPP 10 DAT",10%
same,pest or weed control at 50 g/ha,"Lolium rigidum (LOLRI); Lolium rigidum, 504 h, 50 g a.i./ha, 21 DAT, read-out: Herbicidal effect [%] on LOLRI 21 DAT",0%
COC(=O)c1csc(C)c1S(=O)(=O)NC(=O)n1nc(OC)n(C)c1=O [Thiencarbazone-methyl],Herbicidal effect [%] on AVEFA 21 DAT,Avena fatua (AVEFA); 0.33 g a.i./ha,88%
same,Herbicidal effect [%] on LOLRI 21 DAT,"Lolium rigidum (LOLRI); 0.33 g a.i./ha, 21 DAT",88%
same,Herbicidal effect [%] on CENCY 21 DAT,Centaurea cyanus (CENCY); 0.33 g a.i./ha,40%
same,Herbicidal effect [%] on PHBPU 21 DAT,[2]; 0.33 g a.i./ha,40%
bicyclopyrone,Herbicidal effect [%] on BIDPI 21 DAT,Bidens pilosa (BIDPI); 3 g a.i./ha,10%
same,Herbicidal effect [%] on ELEIN 21 DAT,Eleusine indica (ELEIN); 3 g a.i./ha,30%
same,Herbicidal effect [%] on CENCY 10 DAT,Centaurea cyanus (CENCY); 3 g a.i./ha,50%
